We go through seven compounds from US20120115865A1, “New Salts of an Indole Derivative and Their Use in Medicine” (priority 2006, published 2012).

Counter-ions that a name gives are not always drawn.

The data set is described as follows: Hygroscopicity by Dynamic Vapour Sorption Analysis (DVS). Format: physicochemical. To be noted: 25° C. How it is done: Dynamic Vapour Sorption Analysis (DVS)
The studies were undertaken using Dynamic Vapour Sorption Appararatus (DVS, Surface Measurement Systems, London UK). The apparatus consists of Cahn micobalance housed inside a temperature-controled cabinet. All experiments were performed at 25° C. The DVS was used to characterize the moisture uptake (% w/w) at different relative humidities (RH). Samples (5-10 mg) were weighed directly into the DSV sample cup and exposed to different relative humidities.

In the case of “2-Hydroxy-3-[5-(morpholin-4-ylmethyl)pyridin-2-yl]1H-indole-5-carbonitrile edisylate”, the moisture uptake was determined as 5.1 % w/w (relative humidity 40%), 6.6 % w/w (relative humidity 60%) and 8.2 % w/w (relative humidity 80%).

As to `CCS(=O)(=O)O.N#Cc1ccc2[nH]c(O)c(-c3ccc(CN4CCOCC4)cn3)c2c1` [Esylate, 2-Hydroxy-3-[5-(morpholin-4-ylmethyl)pyridin-2-yl]1H-indole-5-carbonitrile esylate], the moisture uptake is 0.5 % w/w (relative humidity 40%), 0.8 % w/w (relative humidity 60%) and 1.2 % w/w (relative humidity 80%).

As for `N#Cc1ccc2[nH]c(O)c(-c3ccc(CN4CCOCC4)cn3)c2c1.O=C(O)/C=C/C(=O)O` [Fumarate, 2-hydroxy-3-[5-(morpholin-4-ylmethyl)pyridin-2-yl]1H-indole-5-carbonitrile fumarate], the moisture uptake is, setting by setting: (relative humidity 40%) 3.8 % w/w; (relative humidity 60%) 4.5 % w/w; (relative humidity 80%) 5.1 % w/w.

For the compound `N#Cc1ccc2[nH]c(O)c(-c3ccc(CN4CCOCC4)cn3)c2c1` [HCl, 2-hydroxy-3-[5-(morpholin-4-ylmethyl)pyridin-2-yl]1H-indole-5-carbonitrile, reference compound], the moisture uptake was determined as 8.7 % w/w (relative humidity 40%), 11.5 % w/w (relative humidity 60%) and 13.0 % w/w (relative humidity 80%).

On to `N#Cc1ccc2[nH]c(O)c(-c3ccc(CN4CCOCC4)cn3)c2c1.O=C(O)/C=C\C(=O)O` [Maleate, 2-hydroxy-3-[5-(morpholin-4-ylmethyl)pyridin-2-yl]1H-indole-5-carbonitrile maleate], for which the moisture uptake runs as follows: (relative humidity 40%) 1.7 % w/w; (relative humidity 60%) 2.2 % w/w; (relative humidity 80%) 2.7 % w/w.

Regarding `CS(=O)(=O)O.N#Cc1ccc2[nH]c(O)c(-c3ccc(CN4CCOCC4)cn3)c2c1` [Mesylate, 2-Hydroxy-3-[5-(morpholin-4-ylmethyl)pyridin-2-yl]1H-indole-5-carbonitrile mesylate], the moisture uptake reads like this: (relative humidity 40%) 0.7 % w/w; (relative humidity 60%) 1.1 % w/w; (relative humidity 80%) 1.6 % w/w.

`N#Cc1ccc2[nH]c(O)c(-c3ccc(CN4CCOCC4)cn3)c2c1.O=P(O)(O)O` [Phosphate, 2-hydroxy-3-[5-(morpholin-4-ylmethyl)pyridin-2-yl]1H-indole-5-carbonitrile phosphate] showed a moisture uptake (relative humidity 40%) of 4.1 % w/w, a moisture uptake (relative humidity 60%) of 6.6 % w/w and a moisture uptake (relative humidity 80%) of 10.8 % w/w.
